Experimental data from patent EP2875816A1, “N-(3-hydroxy-5,7-dimethyladamantan-1-yl)-2-(3-oxobenzo[d]isothiazol-2(3h)-yl)acetamide as a novel inhibitor for staphylococcus aureus sortase a” (Latvian Biomedical Research and Study Centre, priority 2013, dated 2015).
Values after ≈ are worked out from the molar mass of the structure shown.

Assays:
[1] = target: T1, S. aureus sortase A (SrtAΔN59, residues 60-206) (Staphylococcus aureus, UniProt Q2FV99); experiment: SrtA enzyme FRET inhibition assay (dose-response, recombinant sortase A with FRET peptide substrate containing the LPETG motif); assay type: biochemical
T1 construct: expressed with an N-terminal deletion of 59 amino acid residues (SrtAΔN59, residues 60-206); made in house
Description: The catalytically active recombinant sortase A enzyme used for these studies was expressed with an N-terminal deletion of 59 amino acid residues (SrtAΔN59, residues 60-206). The first step included high-throughput screening of potent S. aereus SrtA inhibitors and selection of new antibacterial substances as sortase A inhibitors. In order to identify potent inhibitors of S. aureus sortase A, a high-throughput screening (HTS) of a diverse library of 50,000 drug-like low-molecular weight molecules was performed, which led to the identification of novel promising drug candidates.
These assays included determination of 50% SrtA inhibition concentration (IC50) of the newly synthesized derivative in dose-response experiments using the recombinant sortase
A enzyme incubated with FRET peptide substrate containing the LPETG motif, minimal inhibitory concentration (MIC) test with two staphylococcal species to measure the antimicrobial efficacy of the new inhibitory molecule, and toxicity test using a normal mouse embryonic fibroblasts cell line NIH/3T3 to determine the cell growth IC50 inhibitory concentration.
Values are means ±SD (n = 5).

[2] = test system: S. epidermidis; experiment: Minimum inhibitory concentration (MIC), broth dilution micromethod; assay type: cell-based; conditions: Staphylococcus epidermidis; 24 hours at 37 °C, complete inhibition of cell growth, OD 600 nm
Protocol: (§1) The MIC values of test compounds that inhibited cell growth of Gram-positive Staphylococcus aureus and S. epidermidis were determined by broth dilution micromethod. A series of solutions with a range from 0.1 µg/ml to 400 µg/ml were made in using a logarithmical phase culture with OD600 = 0.1 (corresponds to ~1.2 x 10^8 CFU/ml in 96-well plate standard. The plate was incubated at 37 °C for 24 hours and growth was assayed with a microplate reader by monitoring the absorption at 600 nm. All experiments were done in triplicate, and repeated three times.

[3] = test system: Staphylococcus aureus; experiment: as above; assay type: cell-based; conditions: 24 hours at 37 °C, complete inhibition of cell growth, OD 600 nm, read-out: MIC, S.aureus
Protocol: as §1

[4] = test system: NIH/3T3 mouse fibroblast cell line; experiment: Cytotoxicity / cell growth inhibition, MTT test; assay type: cell-based; conditions: NIH3T3, 48 hours exposure, mean of three independent experiments ±SD
Protocol: The growth inhibitory effect of the newly synthesized compound was studied on NIH/3T3mouse fibroblast cell line. NIH/3T3 cells were seeded into 96-well microplates with initial density of 1x10^4 cells per well in DMEM culture medium with 10% FCS. After 24 hours of incubation, cells were exposed to a graded series of concentrations of chemical compounds for additional 48 hours. The cell medium was removed and 100 µl of fresh culture medium without phenol red and 1 mM MTT solution was added to each well. After 3 hours of incubation, an equal volume of 1% SDS-HCl solution was added and plates were incubated for additional 4 hours. Absorbance was measured at 570 nm and the data were fitted to a four parameter variable slope equation to determine the IC50 value.
The cytotoxic response is dependent on the cell line tested and NIH/3T3 mouse fibroblasts are a well-characterized cellular model used to study toxicity and drug delivery processes. In the table 3 data are given as the mean of three independent experiments ±SD.

[5] = target: T2, SrtA (Staphylococcus aureus, UniProt Q2FV99); experiment: Binding to SrtA monitored by 2D [15N,1H]-HSQC NMR spectroscopy, with dialysis; conditions: 2D 15N-1H HSQC spectrum unchanged after dialysis against NMR buffer
T2 construct: expressed with an N-terminal deletion of 59 amino acid residues (SrtAΔN59, residues 60-206); made in house
Description: • Fig. 1 - represents the binding of a selected inhibitor N-(adamantan-1-yl)-2-(3-oxo-2,3-dihydro-1,2-benzothiazol-2-yl)acetamide to SrtA monitored by 2D [^15N,^1H]-HSQC NMR spectroscopy. (a) Spectrum of SrtA in absence of inhibitor. […] (a) SrtA active site after modification by inhibitor. The inhibitor (in cyan) and near-by side chains of SrtA are shown with sticks and labeled. Side chains are colored according to their type: hydrophobic in yellow, negatively charged in red, positively charged in blue and hydrophilic in grey. Hydrogens are omitted for clarity. […] (c) Molecular surface representation of SrtA in complex with inhibitor. It can be seen in the figure that the inhibitor occupies almost all volume of the substrate pocket, the majority of interactions are hydrophobic and hydrogen bond is at the R139.
Determination of the complex structure of selected inhibitor and sortase enzyme was performed by using the nuclear magnetic resonance (NMR) spectroscopy methods. The collected NMR data allowed to specify the structure of inhibitory complexes.
To verify that the selected inhibitor can react with a cysteine thiol (such as the SrtA active site C 184) we performed a reaction with cysteine in the NMR tube and observed the formation of a covalent adduct (Figure 2). The chemical structure of the product was verified using proton 1D and 2D NMR methods.

SMILES	IC50 [1] [µM]	MIC [2] [µg/mL]	MIC [3] [µg/mL]	IC50 [4] [µg/mL]	Mode of binding to the active site of SrtA [5]
CC12CC3(C)CC(O)(C1)CC(NC(=O)Cn1sc4ccccc4c1=O)(C2)C3 [N-(3-hydroxy-5,7-dimethyladamantan-1-yl)-2-(3-oxobenzo[d]isothiazol-2(3H)-yl)acetamide]	3.9	8 (≈ 20.7 µM)	8 (≈ 20.7 µM)	8.1 (≈ 21 µM)	–
O=C(Cn1sc2ccccc2c1=O)NC12CC3CC(CC(C3)C1)C2 [N-(adamantan-1-yl)-2-(3-oxo-2,3-dihydro-1,2-benzothiazol-2-yl)acetamide]	–	0.5 (≈ 1.46 µM)	1 (≈ 2.92 µM)	1.3 (≈ 3.8 µM)	irreversible binding
